Measurements published in patent publication US11607417B2, “Uses of celastrol in preventing and/or treating cholestatic liver disease and liver fibrosis” (KUNMING INSTITUTE OF BOTANY, THE CHINESE ACADEMY OF SCIENCES, priority 2017, dated 2023).

Legend:
[1] = tested on: TAA-induced liver fibrosis; assay: TAA-induced liver fibrosis in mice (Example 7); type: in vivo, C57BL/6 mice; conditions: three times per week from second week, TAA 6 weeks
Description: A total of 30 male C57BL/6 mice were divided into three groups: blank group (n=10); TAA liver fibrosis group (n=10); treatment group (n=10).
Celastrol was dissolved in a solvent to obtain a celastrol solution at a concentration of 2 mg/mL, wherein the solvent consisted of 1% DMSO, 2% Tween 80, and 97% water (v:v:v); for intragastrical administration, the dosage of celastrol was 10 mg/kg/time, three times per week, and the administration was absent in the first week. TAA was dissolved in 0.9% NaCl solution to prepare a NaCl solution of TAA at a concentration of […], and the dosage for intraperitoneal administration was 100 mg/kg/time in the first week and 160 mg/kg/time in the second to sixth week, three times per week.
The model group and the treatment group were administrated with TAA three times per week, and administered every other day. The dosage of TAA was 100 mg/kg each time during the first week. From the second week onwards, the dosage of TAA administered to the model group and the treatment group was changed to 160 mg/kg each time. The blank group was given an equal dosage of NaCl solution.
The treatment group was administrated with celastrol from the second week, in which celastrol at a dosage of 10 mg/kg was administered 1 hour after administration with TAA. The blank group and the model group were administrated with an equal dosage of solvent (1% DMSO, 2% Tween 80, and 97% water (v: v: v)).
Six weeks later, mice were sacrificed by CO2 anesthesia, and mouse plasma samples and liver samples were collected. The eyeballs of the mice were taken for blood collection. The plasma samples were placed on ice for 1-2 hours, centrifuged at 4000 g for 5 minutes at 4° C., and the supernatants of plasma samples were taken to determine the plasma biochemical indicators, the levels of ALT, AST, and ALP.
Part of the collected mouse liver tissue was fixed overnight in formalin, and tissue sections were stained with hematoxylin and eosin (H&E).

[2] = tested on: ANIT-induced cholestatic liver injury under SIRT1 inhibition; assay: Effect of SIRT1 inhibition (EX527) on celastrol activity in ANIT model (Example 3); type: in vivo, C57BL/6 mice
Description: A total of 24 male C57BL/6 mice were divided into four groups: blank group (n=6); model group (n=6); treatment group (n=6); and EX527 group (n=6).
Celastrol was dissolved in a solvent to obtain a celastrol solution at a concentration of 2 mg/mL, wherein the solvent consisted of 1% DMSO, 2% Tween 80, and 97% water (v:v:v). For intragastrical administration, the dosage of celastrol was 10 mg/kg·d. ANIT was dissolved in corn oil to obtain a corn oil solution of ANIT at a concentration of 15 mg/mL, and the dosage of ANIT for intragastrical administration was 75 mg/kg. EX527 was dissolved in corn oil to obtain a corn oil solution of EX527 at a concentration of 2 mg/mL, and the dosage of EX527 for intraperitoneal injection was 10 mg/kg·d.
The EX527 group was simultaneously administrated with the celastrol solution and the EX527 corn oil solution for 5 consecutive days. The treatment group was administrated with the celastrol solution and an equal dosage of corn oil for 5 consecutive days. At the same time, the blank group and the model group were administrated with equal dosages of solvent (1% DMSO, 2% Tween 80 and 97% water (v:v:v)) and corn oil, and the solvent was administrated for 5 consecutive days.
On the 3rd day of administration, ANIT model was established. 4 Hours after administration, the mice in the model group, the treatment group and the EX527 group were respectively intraperitoneally injected with the ANIT corn oil solution at a dosage of 75 mg/kg for single administration to induce cholestatic liver injury, and the blank group was fed with an equal dosage of corn oil. After the model was established on the 3rd day of administration, the treatment group was continuously administrated with celastrol, the EX527 group was continuously administrated with celastrol and EX527, and the blank group and the model group were continuously administrated with the same dosage of solvent. 48 Hours after administration with ANIT, the mice were sacrificed by CO2 anesthesia, and mouse liver samples and plasma samples were taken. The eyeballs of the mice were taken for blood collection. The plasma samples were placed on ice for 1-2 hours, centrifuged at 4000 g for 5 minutes at 4° C., and the supernatants of the plasma samples were taken to determine plasma biochemical indicators, the levels of ALT, AST and ALP.
At the same time, plasma samples were prepared: 10 μL of plasma sample was taken, mixed well with 190 μL of 67% acetonitrile (containing 5 μM internal standard chlorpropamide), centrifuged at 18000 g for 20 minutes at 4° C., and the supernatant was taken for sample injection. The liquid chromatography conditions were as follows: the injection volume was 5 μL; the temperature of column was 45° C.; the flow rate of mobile phase was 0.3 mL/min; the gradient elution was that acetonitrile concentration changed from 2% to 98% during 16 minutes of operation, wherein the mobile phase (water/acetonitrile solution) contained 0.01% formic acid. The elution procedure was as follows: during 0-12th minute, the acetonitrile concentration changed from 2% to 98% at a constant rate; during 12-14th minute, the acetonitrile concentration was maintained at 98%; during 14-14.1th minute, the acetonitrile concentration changed from 98% to 2%; during 14.1-16th minute, the acetonitrile concentration was maintained at 2%. Mass spectrometry conditions were as follows: the temperature of dry gas was 350° C., the pressure of nebulizer was 35 psi, and the voltage of capillary was 3.5 kV.
Part of the collected mouse liver tissue was fixed overnight in formalin and tissue sections were stained with hematoxylin and eosin (H&E).

[3] = tested on: ANIT-induced cholestatic liver injury in FXR knockout mice; assay: Effect of FXR on celastrol activity in ANIT model (Example 5); type: in vivo, FXR knockout mice (C57BL/6J as background)
From the text: The same experimental method of Example 1 was used, wherein the experimental animals were FXR knockout mice (C57BL/6J as background), and the FXR knockout mice were presented by Frank J. Gonzalez, a researcher of the Cancer Institute of National Institutes of Health, USA.

[4] = celastrol 10 mg/kg/time, P<0.05, FIG. 7D
[5] = treatment group: celastrol 10 mg/kg·d, P<0.05, FIG. 3E
[6] = method of Example 1, ANIT model, FIG. 5A

CC1=C(O)C(=O)C=C2C1=CC=C1[C@@]2(C)CC[C@@]2(C)[C@@H]3C[C@](C)(C(=O)O)CC[C@]3(C)CC[C@]12C [celastrol, Celastrol]
H&E staining: liver tissue damage and liver morphology ([1]; celastrol 10 mg/kg/time intragastric, n=10, FIG. 7C): reduced and the liver morphology was also significantly recovered | ALT level in plasma vs model group [1, 4]: significantly lower | AST level in plasma vs model group [1, 4]: significantly lower | Levels of bile acids in plasma vs model group ([2]; CA, DCA, TβMCA/TαMCA, TCA, THDCA/TUDCA, treatment group: celastrol 10 mg/kg·d, FIG. 3F): significantly lower | H&E staining of mouse liver tissue ([2]; treatment group: celastrol 10 mg/kg·d intragastric + corn oil, FIG. 3C): no obvious damage | ALP level in plasma vs model group [2, 5]: lower | ALT level in plasma vs model group [2, 5]: lower | AST level in plasma vs model group [2, 5]: lower | Levels of bile acids in plasma vs ANIT model group ([3]; CA, DCA, TβMCA/TαMCA, TCA, THDCA/TUDCA, method of Example 1, FIG. 5B): no significant decrease | ALP level in plasma vs model group [3, 6]: no significant decrease | ALT level in plasma vs model group [3, 6]: no significant decrease
